Data published in patent US20090291857A1, “METHODS TO IDENTIFY INHIBITORS OF THE UNFOLDED PROTEIN RESPONSE” (THE BOARD OF TRUSTEES OF THE LELAND STANFORD JUNIOR …, priority 2006, published 2009).
Where two headings read alike, the source gives them in different places. Values belong to the compound of their own block, whether it stands above or below them.

Columns and labels:
[1] = tested on: IRE1α/XBP-1 pathway (XBP1-luciferase reporter); assay: High throughput XBP-luciferase reporter screen, tunicamycin/thapsigargin induced (HTS and IRE IC50); format: cell-based, human; settings: Homo sapiens; for inhibition at 20 µM: Conc 20 uM
Method: Specifically, HT1080 fibrosarcoma cells stably transfected with the unspliced XBP-1-luciferase reporter construct (3000/well) were plated onto a solid white 384 well microplate with a multidrop dispenser (40 μL per well). The plates were then placed into an automated incubator. After 24 hours of growth, a mixture of tunicamycin (1 μg/ml) and thapsigargin (100 nM) inducers were added, and candidate compounds were then added to the plates. After 24 hours, luciferase reagent (10 μl) was added to each well and the plates were read in a Molecular Devices Analyst GT (0.2 second read per well).
As described above in Example 2, HT1080 fibrosarcoma cells stably expressing the XBP-luciferase reporter were plated in a 384 well microplate (4000 cells/well). After 24 hours, cells were treated with a mixture of tunicamycin (4 μg/ml) and thapsigargin (0.4 μM), followed by the addition of one compound per well (10 μM). We screened a total of 66,000 diverse molecules obtained from Specs, Chembridge and ChemRX. Twenty-four hours post-induction, BriteGlo luciferase substrate (10 μl) was added to each well and the signal intensity determined in a plate reader (0.2 s read per well). […] We retested 431 compounds from the initial screen, and selected 58 compounds for additional analysis, including calculation of IC50 values and inhibition of a CMV-luciferase reporter.
A. XBP-luciferase reporter construct. Firefly luciferase was inserted downstream of the IRE1α splice site in human XBP-1 to enable the conditional translation of luciferase under ER stress in an IRE1α-dependent manner. B. Selective inhibition of the XBP-luciferase reporter by irestatin 9389. HT1080 human fibrosarcoma cells stably expressing the XBP-luciferase reporter or CMV-luciferase were cultured in the presence of Tm (4 μg/ml) and Tg (0.4 μM) and irestatin 9389 at the indicated concentrations. After 24 hours, luciferase activity was analyzed in an automated plate reader. For each cell line, values are expressed as the percent inhibition of the median for Tm/Tg-treated wells, corrected for background. C. Structure of irestatin 9389. D. XBP-luciferase reporter assay. HT1080 cells stably expressing the XBP-luciferase reporter were exposed to Tm (4 μg/ml) for 24 hours or hypoxia (0.1% oxygen) for 24 or 48 hours, in the presence of DMSO or irestatin 9389 (1 μM) as indicated. Values are expressed as the fold increases over uninduced levels. E. 5X-UPRE reporter assay. HT1080 cells were co-transfected with 5X-UPRE luciferase and SV40-beta-gal reporter plasmids, followed by exposure to Tm or hypoxia as in D. For each condition, luciferase activity is normalized to beta-galactosidase expression levels as an internal control for transfection efficiency. F. Western immunoblot analysis of XBP-1s. HT1080 cells were left untreated (lane 2) or exposed to Tm (4 μg/ml) for 20 hours in the presence of DMSO vehicle (lane 1) or the indicated irestatins (2 μM; lanes 3-6). Cell lysates were resolved by SDS-PAGE and immunoblotting using antisera specific for XBP-1s (top panel) or actin and GAPDH (bottom panel) as loading controls. […] HT1080 cells were treated with DMSO or exposed to irestatin 9389 (2 μM; lane 3) in normoxia (N) or under hypoxia for 24 hours (H 24; lanes 2,3). Cells were harvested, lysed, and analyzed by immunoblotting with antisera specific for HIF-1α (top), XBP-1s (middle) or actin (bottom). H. Northern blot analysis of XBP-1s transcription targets. Cells were exposed to Tm (4 μg/ml) or hypoxia for 24 hours (H 24) in the absence or presence of irestatin 9389 (2 μM). Total RNA was analyzed by Northern blotting using radiolabeled probes specific for P58^IPK or DER-1. Total rRNA is shown as loading control.
As described above, a HT1080 fibrosarcoma cell line stably expressing a fusion of unprocessed XBP-1 inserted upstream of firefly luciferase has been developed to identify small molecule inhibitors of the IRE1α/XBP-1 signaling module. […]

XBP-1 splicing = assay: Bioluminescence imaging of XBP-1 splicing in HT1080 XBP-1s-luciferase tumors in nude mice; format: in vivo; settings: IP, 50 mg/kg
Method: Several nude mice were implanted with HT1080 cells stably expressing a XBP-1s-luciferase construct and XBP-1 activation was examined using bioluminescence imaging. Imaging was performed using the In Vivo Imaging System (IVIS, Xenogen Corporation, Alameda, Calif.) in the Stanford Center for Innovation in In Vivo Imaging (SCI3). This device consists of a cooled CCD camera mounted on a light-tight specimen chamber. In these experiments, two different potential irestatins (3281 & 5500) were injected IP into nude mice implanted with HT1080 stably expressing XBP1s-luciferase (described in FIG. 2A).
As shown in FIGS. 9A-D, XBP-1 splicing activity was undetectable 8 hrs after irestatin 3281 injection and became detectable within 16 hrs later.

[2] = 24 h, inhibition of XBP1-luciferase reporter, read-out: Activity Class
[3] = HTS, Conc 10 uM, read-out: % Inh

Structure (SMILES): COCc1cc(C)nc(SCC(=O)Nc2nc(-c3ccc(Br)cc3)cs2)c1C#N [Compound 0040]
inhibition at 10 µM [1, 2]: < 10%
inhibition at 10 µM [1, 3]: -4.6%

Structure (SMILES): N#Cc1c(C(F)(F)F)cc(-c2ccncc2)nc1SCC(=O)Nc1nccs1 [Compound 0069]
inhibition at 10 µM [1, 2]: < 10%
inhibition at 10 µM [1, 3]: -5.4%

Structure (SMILES): CC(=O)N1CCc2nc3sc(C(=O)Nc4cccc(C#N)c4)c(N)c3c(C(F)(F)F)c2C1 [Compound 1491]
inhibition at 10 µM [1, 2]: 10 to 30%

Structure (SMILES): Nc1c(C(=O)Nc2ccccn2)sc2nc(-c3cccs3)cc(C(F)(F)F)c12 [Compound 1567]
inhibition at 10 µM [1, 2]: < 10%
inhibition at 10 µM [1, 3]: -41.2%

Structure (SMILES): COc1ccc(CNC(=O)c2sc3nc4c(c(C(F)(F)F)c3c2N)CCC4)cc1 [Compound 1740]
inhibition at 10 µM [1, 2]: 10 to 30%

Structure (SMILES): COc1ccc(CNC(=O)c2sc3nc4c(c(C(F)(F)F)c3c2N)CCC4)cc1OC [Compound 2399]
inhibition at 10 µM [1, 2]: 10 to 30%
inhibition at 10 µM [1, 3]: 13.3%

Structure (SMILES): Cc1cccc(NC(=O)c2sc3nc(C)cc(C(F)(F)F)c3c2N)n1 [Compound 2750]
inhibition at 10 µM [1, 2]: 10 to 30%
inhibition at 10 µM [1, 3]: 11.7%

Structure (SMILES): CC(=O)C1=C(C)NC(SCC(=O)Nc2nc3ccccc3s2)=C(C#N)C1c1cccnc1 (stereo not shown) [Compound 2853]
inhibition at 10 µM [1, 2]: 10 to 30%
inhibition at 10 µM [1, 3]: 26.5%

Structure (SMILES): Cc1cc(C(F)(F)F)c2c(N)c(C(=O)Nc3cccc(C(F)(F)F)c3)sc2n1 [Compound 3290]
inhibition at 10 µM [1, 2]: < 10%
inhibition at 10 µM [1, 3]: -30.3%

IC50 ([1]; IRE IC50 assay, each value a separate calculation, estimate, not accurate below 10 nM, read-out: IC50): 13.9 µM
Structure (SMILES): N#Cc1cc2c(nc1SCC(=O)Nc1nccs1)CCC2 [Compound 3371]
inhibition at 20 µM ([1]; IRE IC50 assay): 72.6%

Structure (SMILES): N#Cc1cc2c(nc1SCC(=O)Nc1nccs1)CCCCC2 [Compound 3398]
inhibition at 10 µM [1, 2]: < 10%
inhibition at 10 µM [1, 3]: -56.2%

Structure (SMILES): Cc1csc(NC(=O)c2sc3nc4c(c(C(F)(F)F)c3c2N)CCCC4)n1 [Compound 4335]
inhibition at 10 µM [1, 2]: 30 to 75%
inhibition at 12 µM ([1]; IRE IC50 assay, Conc 12 uM): 70.4%
inhibition at 20 µM ([1]; IRE IC50 assay): 67.4%

Structure (SMILES): N#Cc1c(C(F)(F)F)cc(-c2cccs2)nc1SCC(=O)Nc1ccccn1 [Compound 4645]
inhibition at 10 µM [1, 2]: < 10%
inhibition at 10 µM [1, 3]: -8.3%

Structure (SMILES): COc1ccccc1NC(=O)CSc1nc2c(c(C(F)(F)F)c1C#N)CCC2 [Compound 4950]
inhibition at 10 µM [1, 2]: < 10%
inhibition at 10 µM [1, 3]: -6.2%

Structure (SMILES): Cc1csc(NC(=O)c2sc3nc4c(c(C(F)(F)F)c3c2N)CCC4)n1 [Compound 5500]
inhibition at 10 µM [1, 2]: 75 to 100%
inhibition at 20 µM ([1]; IRE IC50 assay): 100%
effect on XBP-1 splicing at the time points assayed (XBP-1 splicing): did not have any affect on XBP-1 splicing
toxicity (XBP-1 splicing): no apparent toxicity

Structure (SMILES): N#Cc1sc2nc(-c3cccs3)cc(C(F)(F)F)c2c1N [Compound 6068]
inhibition at 10 µM [1, 2]: < 10%
inhibition at 12.3 µM ([1]; HTS, Conc 12.3 uM): 5.8%

Structure (SMILES): N#Cc1c(C(F)(F)F)cc(-c2ccccc2)nc1SCC(=O)Nc1nccs1 [Compound 6392]
inhibition at 10 µM [1, 2]: < 10%
inhibition at 10 µM [1, 3]: 2.7%

Structure (SMILES): N#Cc1c(C(F)(F)F)cc(-c2cccs2)nc1SCC(=O)Nc1nccs1 [Compound 6451]
inhibition at 10 µM [1, 2]: < 10%
inhibition at 10 µM [1, 3]: -55.6%

Structure (SMILES): Cc1cc(C(F)(F)F)c(C#N)c(SCC(=O)Nc2nccs2)n1 [Compound 8233]
inhibition at 10 µM [1, 2]: < 10%
inhibition at 10 µM [1, 3]: -59.6%

Structure (SMILES): N#Cc1cccc(NC(=O)c2sc3nc4c(c(C(F)(F)F)c3c2N)CCC4)c1 [Compound 8878]
inhibition at 10 µM [1, 2]: 30 to 75%

Structure (SMILES): CCN(CC)C(=O)CSc1nc2c(c(C(F)(F)F)c1C#N)CCC2 [Compound 8920]
inhibition at 10 µM [1, 2]: 10 to 30%
inhibition at 10 µM [1, 3]: 25.7%

Structure (SMILES): N#Cc1c(C(F)(F)F)cc(-c2cccs2)nc1SCC(=O)Nc1ccc(C(N)=O)cc1 [Compound 9165]
inhibition at 10 µM [1, 2]: < 10%
inhibition at 10 µM [1, 3]: -6.5%

Structure (SMILES): COc1ccc(NC(=O)CSc2nc3c(c(C(F)(F)F)c2C#N)CCC3)c(OC)c1 [Compound 9388]
inhibition at 10 µM [1, 2]: < 10%
inhibition at 10 µM [1, 3]: -40.8%

Structure (SMILES): COCc1cc(C)nc(SCC(=O)Nc2nc(-c3ccc(C)cc3)cs2)c1C#N [Compound 9668]
inhibition at 10 µM [1, 2]: 10 to 30%
inhibition at 10 µM [1, 3]: 19%

Structure (SMILES): COCc1cc(C)nc(SCC(=O)Nc2nc(-c3ccccc3)c(C)s2)c1C#N [Compound 9766]
inhibition at 10 µM [1, 2]: 10 to 30%
inhibition at 10 µM [1, 3]: 26.7%

Structure (SMILES): COCc1cc(C)nc(SCC(=O)Nc2nc(-c3ccccc3)cs2)c1C#N [Compound 9787]
inhibition at 10 µM [1, 2]: < 10%
inhibition at 10 µM [1, 3]: -122%
